Earlier results as cited in patent publication US12103916B2, “Antifungal compounds” (University of Kentucky Research Foundation, priority 2016, dated 2024).
Marks after values point to notes of the source that are not given here.

Assays:
[1] = tested on: C. albicans ATCC 90819(R); details: Table 1; strain D; control azoles; previously reported (refs 5, 16); cited from earlier work
[2] = tested on: Candida glabrata ATCC 2001; details: Table 1; strain H; control azoles; previously reported (refs 5, 16); cited from earlier work
[3] = tested on: C. albicans ATCC MYA-1237(R); details: Table 1; strain F; control azoles; previously reported (refs 5, 16); cited from earlier work

For C[C@@H](c1ncncc1F)[C@](O)(Cn1cncn1)c1ccc(F)cc1F [VOR, voriconazole], the “MIC (MIC-2)” value [1] is given as 1.95^c μg/mL, the “MIC (MIC-2)” value [2] is given as 0.06^c μg/mL and the “MIC (MIC-2)” value [3] is given as 7.8^c μg/mL.
